Literature values as cited in patent US10029019B1, “Method for mitigating osteoporosis using metallic gold cluster molecules” (priority 2017, dated 2018).

Tests used:
[1] = system: RANKL-induced NF-κβ activation; conditions: RAW 264.7 monocytes during osteoclast differentiation
BMMs = conditions: up to 200 μM in BMMs in vitro

Row | SMILES | formation of RAW264.7 precursor cells into osteoclasts (RAW264.7 cells) | other results
1 | O=C1c2c(O)cccc2C([C@@H]2O[C@H](CO)[C@@H](O)[C@H](O)[C@H]2O)c2cc(CO)cc(O)c21 (stereo partly shown) [Aloin] | prevent osteoclast differentiation | 
2 | O=C(/C=C/c1ccc(O)c(O)c1)OCCc1ccccc1 [Caffeic Acid Phenethyl Ester (CAPE), Caffeic Acid Phenethyl Ester] |  | RANKL-induced NF-κβ activation [1]: inhibit
3 | [HH] [Hydrogen molecules] | inhibit | 
4 | [Cl][La]([Cl])[Cl] [Lanthianum Chloride] |  | reduction of gene expression that leads towards osteoclastic differentiation (BMMs): 50%
